Drawing on patent US8574563B2 (Bristol-Myers Squibb Company, priority 2006, dated 2013), this text covers EC50 for 20 molecules.

One test deals with HCV 1b-377-neo replicon cells. Nature of the test: HCV replicon assay, HCV 1b-377-neo replicon cells (1b FRET). As to conditions: HCV 1b-377-neo replicon cells; HCV 1b genotype; read-out: EC50 range against HCV 1b (Table 2, Range). The test is classed as cell-based, Hepatitis C virus genotype 1b. The procedure, abridged: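 Compounds were tested in genotype 1b subgenomic replicon cells carrying a neomycin marker, alongside a matched replicon line with an NS5A Y2065H substitution that confers resistance to a reference NS5A inhibitor.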
For orientation: A replicon is a self-replicating genome or part of one, used to study replication in cells.
As a reminder, the EC50 is the concentration giving half of the maximal effect. Regarding `COC(=O)N[C@@H](C(=O)N1CCC[C@H]1c1ncc(-c2ccc(-c3ccc(-c4cnc([C@@H]5CCCN5C(=O)[C@@H]5C[C@@H]6C[C@@H]6N5)[nH]4)cc3)cc2)[nH]1)c1ccccc1` [Example 83, methyl ((1R)-2-((2)S-2-(5-(4′ (2-((2S)-1-((1S,3S,5S)-2-azabicyclo[3.1.0]hex-3-ylcarbonyl)-2-pyrrolidinyl)-1H-imidazol-5-yl)-4-biphenylyl)-1H-imidazol-2-yl)-1-pyrrolidinyl)-2-oxo-1-phenylethyl)carbamate], the EC50 lay in the range of 0.001 to 0.999 nM.

The same test, now with this note: Hepatitis C virus, HCV 1b-377-neo replicon cells; HCV 1b genotype; read-out: EC50 range against HCV 1b (Table 2, Range).
For the molecule `COC(=O)N[C@H](C(=O)N1CCC[C@H]1c1ncc(-c2ccc(-c3ccc(-c4cnc([C@@H]5CCCN5C(=O)[C@@H](NC(=O)OC)C(C)C)[nH]4)cc3)cc2)[nH]1)C(C)C` [Example 24-23], the EC50 was 0.001 to 0.999 nM.

Consider `CCCCOC(=O)N[C@@H](C)C(=O)N1CCC[C@H]1c1nc(-c2ccc(-c3ccc(-c4cnc([C@@H]5CCCN5C(=O)[C@H](C)NC(=O)OCCCC)[nH]4)cc3)cc2)c[nH]1` [Example F21, butyl ((1S)-2-((2S)-2-(4-(4′-(2-((2S)-1-(N-(butoxycarbonyl)-L-alanyl)-2-pyrrolidinyl)-1H-imidazol-5-yl)-4-biphenylyl)-1H-imidazol-2-yl)-1-pyrrolidinyl)-1-methyl-2-oxoethyl)carbamate], for which the EC50 lay within 100 to 999 nM.

Turning to `COC(=O)N[C@@H](C(=O)N1CCC[C@H]1c1ncc(-c2ccc(-c3ccc(-c4cnc([C@@H]5CCCN5C(=O)C(c5cccc(Cl)c5)N(C)C)[nH]4)cc3)cc2)[nH]1)c1ccccc1` (stereo partly drawn) [Example 84-57, methyl ((1R)-2-((2S)-2-(5-(4′-(2-((2S)-1-((3-chlorophenyl)(dimethylamino)acetyl)-2-pyrrolidinyl)-1H-imidazol-5-yl)-4-biphenylyl)-1H-imidazol-2-yl)-1-pyrrolidinyl)-2-oxo-1-phenylethyl)carbamate], the EC50 was in the range of 0.001 to 0.999 nM.

On to `Cc1cc(-c2cnc([C@@H]3CCCN3C(=O)[C@@H](c3ccccc3)N(C)C)[nH]2)ccc1-c1ccc(-c2cnc([C@@H]3CCCN3C(=O)[C@@H](c3ccccc3)N(C)C)[nH]2)cc1` [Example 123, (1R,1′R)-2,2′-((2-methyl-4,4′-biphenyldiyl)bis(1H-imidazole-5,2-diyl(2S)-2,1-pyrrolidinediyl))bis(N,N-dimethyl-2-oxo-1-phenylethanamine)], for which the EC50 lay within 0.001 to 0.999 nM.

With `O=C([C@H](O)c1ccccc1)N1C[C@H](O)C[C@H]1c1ncc(-c2ccc(-c3ccc(-c4cnc([C@@H]5C[C@@H](O)CN5C(=O)[C@H](O)c5ccccc5)[nH]4)cc3)cc2)[nH]1` [Example 24-12, (3R,5S,3′R,5′S)-5,5′-(4,4′-biphenyldiylbis(1H-imidazole-5,2-diyl))bis(1-((2R)-2-hydroxy-2-phenylacetyl)-3-pyrrolidinol)], the EC50 was 1 to 99 nM.

Take `CCN(CC)[C@@H](C(=O)N1CCC[C@H]1c1ncc(-c2ccc(-c3ccc(-c4cnc([C@@H]5CCCN5C(=O)[C@@H](NC(=O)OC)C5CCOCC5)[nH]4)cc3)cc2)[nH]1)c1ccccc1` [LS14, methyl ((1S)-2-((2S)-2-(5-(4′-(2-((2S)-1-((2R)-2-(diethylamino)-2-phenylacetyl)-2-pyrrolidinyl)-1H-imidazol-5-yl)-4-biphenylyl)-1H-imidazol-2-yl)-1-pyrrolidinyl)-2-oxo-1-(tetrahydro-2H-pyran-4-yl)ethyl)carbamate]: the EC50 lay within 0.001 to 0.999 nM.

On to `CNC(=O)c1nc([C@@H]2CCCN2C(=O)[C@H](NC(=O)OC)c2ccccc2)[nH]c1-c1ccc(-c2ccc(-c3cnc([C@@H]4CCCN4C(=O)[C@H](NC(=O)OC)c4ccccc4)[nH]3)cc2)cc1` [Example J25, methyl ((1R)-2-((2S)-2-(5-(4′-(2-((2S)-1-((2R)-2-((methoxycarbonyl)amino)-2-phenylacetyl)-2-pyrrolidinyl)-1H-imidazol-5-yl)-4-biphenylyl)-4-(methylcarbamoyl)-1H-imidazol-2-yl)-1-pyrrolidinyl)-2-oxo-1-phenylethyl)carbamate], for which the EC50 was in the range of 0.001 to 0.999 nM.

For the molecule `CN1CCN(C(=O)N[C@@H](C(=O)N2CCC[C@H]2c2ncc(-c3ccc(-c4ccc(-c5cnc([C@@H]6CCCN6C(=O)[C@H](NC(=O)N6CCN(C)CC6)c6ccccc6)[nH]5)cc4)cc3)[nH]2)c2ccccc2)CC1` [Example 25-7, N,N′-(4,4′-biphenyldiylbis(1H-imidazole-5,2-diyl(2S)-2,1-pyrrolidinediyl((1R)-2-oxo-1-phenyl-2,1-ethanediyl)))bis(4-methyl-1-piperazinecarboxamide)], the EC50 was in the range of 1 to 99 nM.

Regarding `CC(C)CC(=O)N1[C@@H](C)CC[C@H]1c1nc(-c2ccc(-c3ccc(-c4c[nH]c([C@@H]5CC[C@H](C)N5C(=O)CC(C)C)n4)cc3)cc2)c[nH]1` [Example M158, 4,4′-(4,4′-biphenyldiyl)bis(2-((2S,5S)-5-methyl-1-(3-methylbutanoyl)-2-pyrrolidinyl)-1H-imidazole)], the EC50 lay within 1 to 99 nM.

In the case of `COC(=O)N[C@@H](Cc1ccncc1)C(=O)N1CCC[C@H]1c1ncc(-c2ccc(-c3ccc(-c4cnc([C@@H]5CCCN5C(=O)[C@@H](NC(=O)OC)[C@@H](C)OC)[nH]4)cc3)cc2)[nH]1` [cj-87, methyl ((1S)-2-((2S)-2-(5-(4′-(2-((2S)-1-((2S,3R)-3-methoxy-2-((methoxycarbonyl)amino)butanoyl)-2-pyrrolidinyl)-1H-imidazol-5-yl)-4-biphenylyl)-1H-imidazol-2-yl)-1-pyrrolidinyl)-2-oxo-1-(4-pyridinylmethyl)ethyl)carbamate], the EC50 was in the range of 0.001 to 0.999 nM.

Consider `COC(=O)N[C@@H](C(=O)N[C@@H](C)c1ncc(-c2cnc(-c3ccc(-c4cnc([C@@H]5CCCN5C(=O)[C@H](NC(=O)OC)c5ccccc5)[nH]4)cc3)nc2)[nH]1)c1ccccc1` [Example 152j-17, methyl ((1R)-2-((2S)-2-(5-(4-(5-(2-((1S)-1-(((2R)-2-((methoxycarbonyl)amino)-2-phenylacetyl)amino)ethyl)-1H-imidazol-5-yl)-2-pyrimidinyl)phenyl)-1H-imidazol-2-yl)-1-pyrrolidinyl)-2-oxo-1-phenylethyl)carbamate], for which the EC50 was in the range of 0.001 to 0.999 nM.

For `CCCN(CCC)[C@H](C)C(=O)N1CCC[C@H]1c1ncc(-c2ccc(-c3ccc(-c4cnc([C@@H]5CCCN5C(=O)[C@H](C)NC(=O)OC)[nH]4)cc3)cc2)[nH]1` [Example M102, methyl ((1S)-2-((2S)-2-(5-(4′-(2-((2S)-1-(N,N-dipropyl-D-alanyl)-2-pyrrolidinyl)-1H-imidazol-5-yl)-4-biphenylyl)-1H-imidazol-2-yl)-1-pyrrolidinyl)-1-methyl-2-oxoethyl)carbamate], the EC50 lay within 1 to 99 nM.

For the molecule `O=C(C1CC1)N1CCC[C@H]1c1ncc(-c2ccc(-c3ccc(-c4cnc([C@@H]5CCCN5C(=O)C5CC5)[nH]4)cc3)cc2)[nH]1` [Example 11, 5,5′-(4,4′-biphenyldiyl)bis(2-((2S)-1-(cyclopropylcarbonyl)-2-pyrrolidinyl)-1H-imidazole)], the EC50 fell in the range of 1 to 99 nM.

As to `COC(=O)N[C@H](C(=O)N1CCC[C@H]1c1nc(-c2ccc(-c3ccc(-c4c[nH]c([C@@H]5CCCN5C(=O)CNC5CCOCC5)n4)cc3)cc2)c[nH]1)C(C)C` [Example F51, methyl ((1S)-2-methyl-1-(((2S)-2-(4-(4′-(2-((2S)-1-(N-(tetrahydro-2H-pyran-4-yl)glycyl)-2-pyrrolidinyl)-1H-imidazol-4-yl)-4-biphenylyl)-1H-imidazol-2-yl)-1-pyrrolidinyl)carbonyl)propyl)carbamate], the 50% effective concentration (EC50) lay within 0.001 to 0.999 nM.

For `COC(=O)NCC(=O)N1[C@@H](C)CC[C@H]1c1nc(-c2ccc(-c3ccc(-c4c[nH]c([C@@H]5CC[C@H](C)N5C(=O)CNC(=O)OC)n4)cc3)cc2)c[nH]1` [Example M155, methyl (2-((2S,5S)-2-(4-(4′-(2-((2S,5S)-1-(((methoxycarbonyl)amino)acetyl)-5-methyl-2-pyrrolidinyl)-1H-imidazol-4-yl)-4-biphenylyl)-1H-imidazol-2-yl)-5-methyl-1-pyrrolidinyl)-2-oxoethyl)carbamate], the EC50 was 1 to 99 nM.

`COC(=O)N[C@@H](Cc1cccnc1)C(=O)N1CCC[C@H]1c1ncc(-c2ccc(-c3ccc(-c4cnc([C@@H]5CCCN5C(=O)[C@@H](NC(=O)OC)[C@@H](C)OC)[nH]4)cc3)cc2)[nH]1` [cj-82, methyl ((1S)-2-((2S)-2-(5-(4′-(2-((2S)-1-((2S,3R)-3-methoxy-2-((methoxycarbonyl)amino)butanoyl)-2-pyrrolidinyl)-1H-imidazol-5-yl)-4-biphenylyl)-1H-imidazol-2-yl)-1-pyrrolidinyl)-2-oxo-1-(3-pyridinylmethyl)ethyl)carbamate]: the 50% effective concentration (EC50) lay in the range of 0.001 to 0.999 nM.

With `COC(=O)N[C@@H](C(=O)N1CCC[C@H]1c1ncc(-c2ccc(-c3ccc(-c4cnc([C@@H]5CCCN5C(=O)[C@H](NC(=O)OC)c5ccccc5Cl)[nH]4)cc3)cc2)[nH]1)c1ccccc1Cl` [Example 24-3, dimethyl (4,4′-biphenyldiylbis(1H-imidazole-5,2-diyl(2S)-2,1-pyrrolidinediyl((1R)-1-(2-chlorophenyl)-2-oxo-2,1-ethanediyl)))biscarbamate], the EC50 was in the range of 0.001 to 0.999 nM.

Consider `CN(C)C(C(=O)N1CCC[C@H]1c1nc(-c2ccc(-c3ccc(-c4cnc([C@@H]5CC6CCCCC6N5C(=O)[C@@H](c5ccccc5)N(C)C)[nH]4)cc3)cc2)c[nH]1)c1ccccc1` (relative stereo) [Example F7, rel-(1R)-2-((2S)-2-(4-(4′-(2-((2S)-1-((2R)-2-(dimethylamino)-2-phenylacetyl)octahydro-1H-indol-2-yl)-1H-imidazol-5-yl)-4-biphenylyl)-1H-imidazol-2-yl)-1-pyrrolidinyl)-N,N-dimethyl-2-oxo-1-phenylethanamine], for which the 50% effective concentration (EC50) was in the range of 0.001 to 0.999 nM.

For the molecule `COC(=O)N[C@@H](C(=O)N1C[C@H](O)C[C@H]1c1nc(-c2ccc(-c3ccc(-c4c[nH]c([C@@H]5C[C@@H](O)CN5C(=O)[C@H](NC(=O)OC)c5ccccc5)n4)cc3)cc2)c[nH]1)c1ccccc1` [Example 24-11, dimethyl (4,4′-biphenyldiylbis(1H-imidazole-5,2-diyl((2S,4R)-4-hydroxy-2,1-pyrrolidinediyl)((1R)-2-oxo-1-phenyl-2,1-ethanediyl)))biscarbamate], the EC50 was 1 to 99 nM.
